Laboratory results taken from patent US20150258220A1, “MAGNETIC RESONANCE IMAGING AND/OR SPECTROSCOPY CONTRAST AGENTS AND METHODS OF USE THEREOF” (Duke University, priority 2008, published 2015).

Experiments:
[1] = 13C NMR inversion recovery of diacetyl / monohydrate in water; type: physicochemical; conditions: pH 7, water
Experimental: ^13C-labelled diacetyl was prepared from ^13C2 oxalate, which was reacted with N, N′-dimethylethylenediamine to afford 2,3-^13C2-1,4-dimethylpiperazine-2,3-dione in 97% yield. Two equivalents of methyl magnesium bromide were added to the piperazine dione to produce the dimethyl piperazine N,O-acetal. Crude acetal was hydrolyzed with 10% aqueous HCl to yield 2,3-^13C2-diacetyl, which was purified by fractional distillation. The carbonyl carbons in diacetyl are magnetically equivalent by symmetry, so at modest resolution (such as that commonly achieved in an imaging system), the spectrum is expected to have only a single line. Neat 2,3-^13C diacetyl does have a single line carbon-13 NMR spectrum, however the carbon spectrum in water has five lines. In water, the monohydrate (i.e., CH3—(^13C═O)(^13C(OH)2)CH3) with classic AX doublets (splitting JC-C=50 Hz) is the majority species. See Bell, Adv. Phys. Org. Chem., 4, 1 (1966); Bell and McDougall, Trans. Faraday Soc., 56, 1281-1285 (1960); and Greenzaid et al., J. Am. Chem. Soc., 89, 749 (1967). The dihydrate is undetectable. Equilibrium can be shifted back to diacetyl by changing solvent, and the rate of interconversion is pH dependent. At pH 7, inversion of the diacetyl alone causes recovery in 8 s, which gives the rate of dehydration. Inversion of all lines causes diacetyl to recover in 22 s.

[2] = DNP hyperpolarization (Oxford HYPERSENSE), single-shot 13C NMR in water; type: physicochemical; conditions: hyperpolarized sample in water
Source text: FIG. 1 is a single-shot hyperpolarized ^13C nuclear magnetic resonance (NMR) spectrum of 2,3-^13C diacetyl in water. Hyperpolarized 2,3-^13C diacetyl was produced by a commercially available hyperpolarizer (Oxford HYPERSENSE™, Oxford Instruments Molecular Biotools Ltd., Tubney Woods, Abingdon, Oxfordshire, United Kingdom). The sample has about 20% nuclear polarization. The thermally polarized spectrum (not shown) is similar after many averages.
In some embodiments, the hyperpolarizing is performed by DNP. DNP refers to transferring spin polarization from electrons to nuclei. DNP can be performed by doping a material with a free radical. The unpaired electrons in the free radical can be polarized, for example, by exposure to a high magnetic field and low temperature. Irradiation at the electron paramagnetic resonance frequency can then serve to transfer polarization to the nuclei. By “hyperpolarization,” it is meant that the sample is polarized to a level over that found at room temperature and 1 Tesla, preferably polarized to a polarization degree in excess of 0.1%, more preferably 1%, even more preferably 10%.

[3] = butter; cited from earlier work

- nuclear polarization [2]: about 20%
SMILES: CC(=O)C(C)=O [diacetyl]
- recovery time after inversion of the diacetyl alone (gives the rate of dehydration) [1]: 8 s
- recovery time of diacetyl after inversion of all lines [1]: 22 s
- partitioning between phases [3]: mostly found in the fatty phase
